# Columns and labels:
# [1] = test system: neuroleptic-induced catatonia; assay: Inhibition of neuroleptic (prochlorperazine)-induced catatonia (preventive); assay type: in vivo, rat (male, OFA strain); details: for activity relative to amantadine, neuroleptic-induced catatonia: times more active than amantadine
# Procedure: The blocking of dopaminergic receptors by neuroleptics in the extra-pyramidal system induces catatonia in the rat. Catatonia is differentiated from sedative properties by means of the test used hereabove for reserpine-induced catatonia. The same system of scoring was also employed in the present case.
# An oral dose of the compound to be studied in aqueous solution was administered to batches of 10 male rats of the OFA strain weighing about 150 to 200 g.
# Three hours after the injection of this latter compound, catatonia was measured. An identical trial was also carried out with control animals which received prochlorperazine but none of the compounds under study.
# The scoring system used was that given hereabove for Table I.
# [2] = test system: reserpine-induced catatonia; assay: Inhibition of reserpine-induced catatonia (preventive, oral compound 30 min before reserpine); assay type: in vivo, rat (male, OFA strain)
# Procedure: After sufficient doses of reserpine have been administered to the rat, a series of symptoms occur, more particularly ptosis, catatonia and a drop in central temperature. These symptoms are caused by the depletion of the intragranular reserve pool of biogenetic amines at the synaptic terminals.
# An oral dose of the compound to be studied in aqueous solution was administered to batches of 10 male rats of the OFA strain weighing about 150 to 200 g. Thirty minutes later a dose of 5 mg/kg of reserpine was given by intraperitoneal route. Three hours after the injection of reserpine, the animals were suspended by the four paws to a horizontally stretched wire fixed at 15 cm from the ground. The catatonia animals were those which maintained the position so given for at least 30 seconds. […] The maximum score was therefore 10 per batch. An identical trial was undertaken with control animals which received reserpine but none of the compounds being studied.
# in vivo = details: mouse, po
smiles,measurement,setting,value
"CCCC(N)(CC)CC(C)C (stereo not shown) [Compound 3, 1-Ethyl-1-isobutyl-n-butylamine]",Inhibition of the neuroleptic-induced catatonia,[1]; 20 mg/kg oral,3 (represents 70 to 80% inhibition of catatonia in comparison with the controls)
"CCCC(N)(CCC)CC(C)C [Compound 5, 1-n-Propyl-1-isobutyl-n-butylamine]",Inhibition of reserpine-induced catatonia,[2]; 20 mg/kg oral,2 (represents 50% inhibition of catatonia in comparison with the controls)
same,"activity relative to amantadine, neuroleptic-induced catatonia",[1],five times more active
"CCCC(C)(N)CC(C)CC (stereo not shown) [Compound 6, 1,3-Dimethyl-1-n-propyl-n-pentylamine]",selectivity ratio,in vivo,> 25
"CCCCC(C)(N)CC(C)C (stereo not shown) [Compound 8, 1-Methyl-1-isobutyl-n-pentylamine]","activity relative to amantadine, neuroleptic-induced catatonia",[1],twice as active
"CCCCCC(C)(N)CCC (stereo not shown) [Compound 9, 1-Methyl-1-n-propyl-n-hexylamine]",selectivity ratio,in vivo,87
"CCCCC(C)CC(C)(C)N (stereo not shown) [Compound 13, 1,1,3-Trimethyl-n-heptylamine]",Inhibition of reserpine-induced catatonia,[2]; 25 mg/kg oral,1 (represents 20 to 30% inhibition of catatonia in comparison with the controls)
same,Inhibition of the neuroleptic-induced catatonia,[1]; 50 mg/kg oral,1 (represents 20 to 30% inhibition of catatonia in comparison with the controls)
"CCCC(N)(CCC)CC(C)C [Compound 19, 1-n-Propyl-1-isobutyl-n-butylamine]",Inhibition of reserpine-induced catatonia,[2]; 6 mg/kg oral,3 (represents 70 to 80% inhibition of catatonia in comparison with the controls)
same,Inhibition of the neuroleptic-induced catatonia,[1]; 6 mg/kg oral,3 (represents 70 to 80% inhibition of catatonia in comparison with the controls)
"CCCC(CCC)(CCC)N(C)C [Compound 28, N,N-Dimethyl-1,1-di-n-propyl-n-butylamine]",Inhibition of reserpine-induced catatonia,[2]; 6 mg/kg oral,4 (represents 100% inhibition of catatonia in comparison with the controls)
same,Inhibition of the neuroleptic-induced catatonia,[1]; 3 mg/kg oral,2 (represents 50% inhibition of catatonia in comparison with the controls)
same,Inhibition of the neuroleptic-induced catatonia,[1]; 6 mg/kg oral,4 (represents 100% inhibition of catatonia in comparison with the controls)
"CCCC(CCC)(CC(C)C)NC [Compound 31, N-Methyl-1-n-propyl-1-isobutyl-n-butylamine]",Inhibition of reserpine-induced catatonia,[2]; 6.5 mg/kg oral,3 (represents 70 to 80% inhibition of catatonia in comparison with the controls)
same,Inhibition of the neuroleptic-induced catatonia,[1]; 6.5 mg/kg oral,4 (represents 100% inhibition of catatonia in comparison with the controls)
"CCCC(CCC)(CC(C)C)N(C)C [Compound 37, N,N-Dimethyl-1-n-propyl-1-isobutyl-n-butylamine]",Inhibition of reserpine-induced catatonia,[2]; 6.5 mg/kg oral,3 (represents 70 to 80% inhibition of catatonia in comparison with the controls)
same,Inhibition of the neuroleptic-induced catatonia,[1]; 6.5 mg/kg oral,2 (represents 50% inhibition of catatonia in comparison with the controls)
"CCCC(CCC)(CCC)N(C)CC [Compound 38, N-Methyl-N-ethyl-1,1-di-n-propyl-n-butylamine]",Inhibition of reserpine-induced catatonia,[2]; 6.5 mg/kg oral,2 (represents 50% inhibition of catatonia in comparison with the controls)
same,Inhibition of the neuroleptic-induced catatonia,[1]; 6.5 mg/kg oral,2 (represents 50% inhibition of catatonia in comparison with the controls)
"C#CCN(CC#C)C(CCC)(CCC)CCC [Compound 39, N,N-Dipropargyl-1,1-di-n-propyl-n-butylamine]",Inhibition of reserpine-induced catatonia,[2]; 15 mg/kg oral,2 (represents 50% inhibition of catatonia in comparison with the controls)
"CCCC(CCC)(CCC)N(CCO)CCO [Compound 44, N,N-bis-(2-Hydroxyethyl)-1,1-di-n-propyl-n-butylamine]",Inhibition of reserpine-induced catatonia,[2]; 15 mg/kg oral,1 (represents 20 to 30% inhibition of catatonia in comparison with the controls)
same,Inhibition of the neuroleptic-induced catatonia,[1]; 15 mg/kg oral,1 (represents 20 to 30% inhibition of catatonia in comparison with the controls)
"CCCC(CCC)(CCC)NCCCO [Compound 45, N-(3-Hydroxy-n-propyl)-1,1-di-n-propyl-n-butylamine]",Inhibition of reserpine-induced catatonia,[2]; 14 mg/kg oral,2 (represents 50% inhibition of catatonia in comparison with the controls)
same,Inhibition of the neuroleptic-induced catatonia,[1]; 7 mg/kg oral,2 (represents 50% inhibition of catatonia in comparison with the controls)
"CCCNC(CCC)(CCC)CCC [Compound 47, N-n-propyl-1,1-di-n-propyl-n-butylamine]",Inhibition of the neuroleptic-induced catatonia,[1]; 6.5 mg/kg oral,2 (represents 50% inhibition of catatonia in comparison with the controls)

# From patent US4201725A, “Secondary amines” (priority 1974, dated 1980)
